What was measured:
[1] = target: T1, substance P receptor sites in IM-9 cells (Homo sapiens, UniProt P25103); assay: IM-9 binding assay (inhibition of [3H]SP binding); conditions: human IM-9 cells, 0.56 nM [^3H]SP, 120 min at 4° C.
T1 construct: endogenous in cells; host or cells: IM-9 cells (human)
Protocol: The activity of the compounds of the present invention, as substance P antagonists, is determined by their ability to inhibit the binding of substance P at its receptor sites in IM-9 cells employing radioactive ligands. The substance P antagonist activity of the herein described compounds is evaluated by using the standard assay procedure described by D. G. Payan et al., as reported in J. Immunolocy, 133, 3260 (1984). This method essentially involves determining the concentration of the individual compound required to reduce by 50% the amount of radiolabeled substance P ligands at their receptor sites in said isolated cow tissues or IM-9 cells, thereby affording characteristic IC50 values for each compound tested. More specifically, inhibition of [^3H]SP binding to human IM-9 cells by compounds are determined in assay buffer (50 mM Tris-HCl (pH 7.4), 1 mM MnCl2, 0.02% bovine serum albumin, bacitracin (40 μg/ml), leupeptin (4 μg/ml), chymostatin (2 μg/ml) and phosphoramidon (30 μg/ml)). The reaction is initiated by the addition of cells to assay buffer containing 0.56 nM [^3H]SP and various concentrations of compounds (total volume; 0.5 ml) and allowed to incubate for 120 min at 4° C. […] Nonspecific binding is defined as the radioactivity remaining in the presence of 1 μM SP. The filters are placed into tubes and counted using liquid scintillation counter.

Ca^2+ channel = target: T2, Ca^2+ channel (Rattus norvegicus, UniProt P22002); assay: verapamil binding study in rat heart membrane preparation; conditions: 0.25 nM [^3H]desmethoxyverapamil, read-out: verapamil binding study (Ca^2+ channel binding affinity, adverse effect)
T2 construct: from tissue; host or cells: rat heart membrane preparation
T2 sequence (P22002 whole entry, other chains not shown): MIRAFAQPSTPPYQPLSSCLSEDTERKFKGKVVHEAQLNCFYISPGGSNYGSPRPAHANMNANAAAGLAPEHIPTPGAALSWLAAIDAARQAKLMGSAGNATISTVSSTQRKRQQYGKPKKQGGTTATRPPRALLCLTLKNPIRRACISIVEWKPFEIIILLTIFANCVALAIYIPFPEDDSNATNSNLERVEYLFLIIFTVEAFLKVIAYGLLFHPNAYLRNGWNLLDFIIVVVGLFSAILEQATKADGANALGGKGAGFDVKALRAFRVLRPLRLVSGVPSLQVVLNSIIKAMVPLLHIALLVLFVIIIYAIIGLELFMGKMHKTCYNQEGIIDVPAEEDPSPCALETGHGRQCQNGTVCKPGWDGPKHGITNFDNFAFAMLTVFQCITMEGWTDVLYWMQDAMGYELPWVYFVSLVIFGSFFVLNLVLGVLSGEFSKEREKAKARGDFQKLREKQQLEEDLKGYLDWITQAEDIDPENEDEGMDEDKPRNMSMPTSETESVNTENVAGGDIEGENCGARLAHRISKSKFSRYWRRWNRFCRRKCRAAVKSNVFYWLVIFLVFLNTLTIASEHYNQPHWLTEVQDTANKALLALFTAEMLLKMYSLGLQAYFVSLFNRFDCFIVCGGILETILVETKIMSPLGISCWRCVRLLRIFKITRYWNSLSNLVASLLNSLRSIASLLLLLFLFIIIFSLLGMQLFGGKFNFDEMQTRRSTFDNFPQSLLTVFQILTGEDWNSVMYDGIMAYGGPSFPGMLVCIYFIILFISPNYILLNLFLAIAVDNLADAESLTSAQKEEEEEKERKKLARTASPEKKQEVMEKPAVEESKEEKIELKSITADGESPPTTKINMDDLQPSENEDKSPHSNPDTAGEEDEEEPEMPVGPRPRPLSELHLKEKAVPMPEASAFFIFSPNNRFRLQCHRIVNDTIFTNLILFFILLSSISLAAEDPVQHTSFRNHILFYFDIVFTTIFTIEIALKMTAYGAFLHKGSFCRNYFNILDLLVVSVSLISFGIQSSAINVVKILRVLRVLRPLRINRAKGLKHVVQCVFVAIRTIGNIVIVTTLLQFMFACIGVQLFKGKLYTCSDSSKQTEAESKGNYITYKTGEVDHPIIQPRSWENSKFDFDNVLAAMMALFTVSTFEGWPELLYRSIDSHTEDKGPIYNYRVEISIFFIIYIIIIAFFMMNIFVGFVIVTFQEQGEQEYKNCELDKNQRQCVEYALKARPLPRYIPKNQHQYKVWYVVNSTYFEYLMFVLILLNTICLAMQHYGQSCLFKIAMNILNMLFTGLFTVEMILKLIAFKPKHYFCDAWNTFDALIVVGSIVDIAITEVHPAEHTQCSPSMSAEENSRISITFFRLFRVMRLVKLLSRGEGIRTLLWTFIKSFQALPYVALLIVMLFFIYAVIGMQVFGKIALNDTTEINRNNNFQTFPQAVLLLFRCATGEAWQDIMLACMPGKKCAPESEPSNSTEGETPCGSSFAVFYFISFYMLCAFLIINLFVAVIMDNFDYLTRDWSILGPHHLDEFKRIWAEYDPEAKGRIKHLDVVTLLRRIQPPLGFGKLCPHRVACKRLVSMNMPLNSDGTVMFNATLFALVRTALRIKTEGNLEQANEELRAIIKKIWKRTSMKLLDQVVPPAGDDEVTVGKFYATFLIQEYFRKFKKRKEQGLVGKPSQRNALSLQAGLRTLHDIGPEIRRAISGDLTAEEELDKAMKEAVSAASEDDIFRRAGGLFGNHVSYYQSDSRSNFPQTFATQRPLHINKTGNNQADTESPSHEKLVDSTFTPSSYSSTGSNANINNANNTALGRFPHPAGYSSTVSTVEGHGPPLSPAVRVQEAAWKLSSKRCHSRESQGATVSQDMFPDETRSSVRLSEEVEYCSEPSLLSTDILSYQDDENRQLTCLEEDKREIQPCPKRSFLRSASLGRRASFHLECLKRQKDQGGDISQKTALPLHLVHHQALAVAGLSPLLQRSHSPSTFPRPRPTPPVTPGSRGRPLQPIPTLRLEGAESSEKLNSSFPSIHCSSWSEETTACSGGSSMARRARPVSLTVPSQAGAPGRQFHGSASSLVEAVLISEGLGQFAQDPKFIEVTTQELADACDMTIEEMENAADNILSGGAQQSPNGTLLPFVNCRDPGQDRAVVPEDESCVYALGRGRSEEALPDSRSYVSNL
T2 sequence (P54290 25-944 partner limits assumed, other chains not shown): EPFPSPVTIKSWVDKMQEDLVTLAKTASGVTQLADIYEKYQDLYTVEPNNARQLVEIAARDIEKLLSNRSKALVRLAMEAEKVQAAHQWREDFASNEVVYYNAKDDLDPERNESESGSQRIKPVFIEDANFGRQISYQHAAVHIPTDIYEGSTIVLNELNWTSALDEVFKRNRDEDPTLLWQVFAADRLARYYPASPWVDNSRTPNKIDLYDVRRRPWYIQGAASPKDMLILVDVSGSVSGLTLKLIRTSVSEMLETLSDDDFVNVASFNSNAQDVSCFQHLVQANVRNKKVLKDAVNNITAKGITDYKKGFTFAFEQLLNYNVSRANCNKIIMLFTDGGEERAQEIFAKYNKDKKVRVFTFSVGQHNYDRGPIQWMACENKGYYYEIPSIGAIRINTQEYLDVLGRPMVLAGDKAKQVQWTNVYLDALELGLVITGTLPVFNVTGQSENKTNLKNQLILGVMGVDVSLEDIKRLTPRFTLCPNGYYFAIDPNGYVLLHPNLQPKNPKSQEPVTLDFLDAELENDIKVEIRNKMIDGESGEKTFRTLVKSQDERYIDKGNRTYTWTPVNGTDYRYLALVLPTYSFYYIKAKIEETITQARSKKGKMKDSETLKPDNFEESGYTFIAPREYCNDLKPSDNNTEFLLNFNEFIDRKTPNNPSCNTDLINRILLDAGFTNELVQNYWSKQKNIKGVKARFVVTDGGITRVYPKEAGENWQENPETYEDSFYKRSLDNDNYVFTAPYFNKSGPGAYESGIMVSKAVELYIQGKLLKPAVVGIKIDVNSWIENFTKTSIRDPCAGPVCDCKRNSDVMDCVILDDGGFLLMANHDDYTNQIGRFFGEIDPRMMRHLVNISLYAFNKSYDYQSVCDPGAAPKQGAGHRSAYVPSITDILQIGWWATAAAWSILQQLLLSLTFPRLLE
T2 sequence (P54290 945-1091 partner limits assumed, other chains not shown): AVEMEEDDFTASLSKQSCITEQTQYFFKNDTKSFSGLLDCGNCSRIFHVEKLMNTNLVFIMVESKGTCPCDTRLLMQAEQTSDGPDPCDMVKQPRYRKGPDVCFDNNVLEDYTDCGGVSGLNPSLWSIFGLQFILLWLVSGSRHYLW
Protocol: The adverse effect on Ca^2+ channel binding affinity is determined by verapamil binding study in rat heart membrane preparation. More specifically, verapamil binding study is performed as previously described by Reynolds et al., (J. Pharmacol. Exp. Ther., 237, 731, (1986)). Briefly, incubations are initiated by the addition of tissue to tubes containing 0.25 nM [^3H]desmethoxyverapamil and various concentrations of compounds (total volume; 1 ml). Nonspecific binding is defined as radioligand binding remaining in the presence of 3-10 μM methoxyverapamil.

gerbils = assay: tapping test in gerbils; format: in vivo, gerbil; conditions: % inhibition at 0.3 mg/kg scoring
Protocol: More specifically, gerbils are lightly anesthetized with ether and the skull surface is exposed. […] Following injection, gerbils are placed in 1 L beaker individually and monitored for repetitive hind paw tapping. Some compounds prepared in the following Examples were tested in accordance with these testing methods.

T1 sequence (P25103 whole entry): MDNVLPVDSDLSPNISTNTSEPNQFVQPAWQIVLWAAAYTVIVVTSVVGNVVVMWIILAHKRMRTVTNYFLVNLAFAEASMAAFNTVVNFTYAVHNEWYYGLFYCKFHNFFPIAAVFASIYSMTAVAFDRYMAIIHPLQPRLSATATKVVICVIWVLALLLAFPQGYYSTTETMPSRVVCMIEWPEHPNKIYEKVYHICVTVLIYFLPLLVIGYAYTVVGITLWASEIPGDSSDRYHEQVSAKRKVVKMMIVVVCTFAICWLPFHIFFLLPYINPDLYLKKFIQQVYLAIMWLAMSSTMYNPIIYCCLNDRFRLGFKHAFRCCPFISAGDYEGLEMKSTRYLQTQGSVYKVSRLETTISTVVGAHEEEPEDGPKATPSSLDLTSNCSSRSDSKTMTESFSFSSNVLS

For `COc1cc2c(cc1CN[C@H]1C3CCN(CC3)[C@H]1C(c1ccccc1)c1ccccc1)N(C)C(=O)CC2`, the melting point was 136 to 139 °C.
With `COc1cc2ccc(=O)n(C)c2cc1CN[C@H]1C2CCN(CC2)[C@H]1C(c1ccccc1)c1ccccc1` the melting point was 125 to 128 °C.
With `COc1cc2ccc(=O)n(C)c2cc1CN[C@H]1CCCN[C@H]1c1ccccc1.Cl.Cl` the melting point was 260 to 263 °C.
`COc1cc2c(cc1CN[C@H]1CCCN[C@H]1c1ccccc1)N(C(C)C)C(=O)CC2.Cl.Cl` gave a melting point of 257 to 260 °C.
`CN1C(=O)CCc2cc(OC(F)F)c(CN[C@H]3CCCN[C@H]3c3ccccc3)cc21.Cl.Cl` showed a melting point of 238 to 240 °C.
Work on `COc1cc2c(cc1CN[C@H]1CCCN[C@H]1c1ccccc1)N(CC(F)(F)F)C(=O)CC2.Cl.Cl` yielded a melting point of 243 to 245 °C.
With `COc1cc2c(cc1CN[C@H]1CCCN[C@H]1c1ccccc1)N(C)C(=S)CC2.Cl.Cl` the melting point was 245 to 246 °C.
`COc1cc2c(cc1CN[C@H]1CCCN[C@H]1c1ccccc1)N(C)C(=O)CCC2.Cl.Cl` showed a melting point of 236 to 238 °C.
`COc1cc2c(cc1CN[C@H]1CCCN[C@H]1c1ccccc1)CCC(=O)N2C.Cl.Cl` gave a melting point of 243 to 244 °C.
In the case of `COc1cc2c(cc1CN[C@H]1CCCN[C@H]1c1ccccc1)C(C(F)(F)F)CC(=O)N2C.Cl.Cl` (stereo partly drawn), the melting point is reported as 255 to 256 °C.
In the case of `COc1cc2c(cc1CN[C@H]1CCCN[C@H]1c1ccccc1)N(C)C(=O)OC2.Cl.Cl`, the melting point is reported as 235 to 237 °C.
`COc1cc2c(cc1CN[C@H]1CCCN[C@H]1c1ccccc1)N(C)C(=O)SC2.Cl.Cl` gave a melting point of 252 to 254 °C.
`COc1cc2c(cc1CN[C@H]1CCCN[C@H]1c1ccccc1)C(C)(C)C(=S)N2C.Cl.Cl` gave a melting point of 234 to 236 °C.
`COc1cc2c(cc1CN[C@H]1CCCN[C@H]1c1ccccc1)CCC(=S)N2C.Cl.Cl` gave a melting point of 219 to 221 °C.
With `COc1cc2c(cc1CN[C@H]1CCCN[C@H]1c1ccccc1)N(C)C(=O)CC2.Cl.Cl` [Compound 21, (2S,3S)-3-(6-Methoxy-1-methyl-2-oxo-1,2,3,4-tetrahydroquinolin-7-yl)methylamino-2-phenylpiperidine Dihydrochloride] the IC50 [1] was under 0.1 nM, the IC50 (Ca^2+ channel) was over 300 nM and the “[Sar^9, Met(O2)^11]substance P-induced tapping test, % inhibition” value (gerbils) was 52%. For the same compound, the melting point was 265 to 268 °C.
